Measurements reported in publication PMC6222857, “Synthesis and Preliminary Evaluation of Biological Activity of Glycoconjugates Analogues of Acyclic Uridine Derivatives” (Molecules : A Journal of Synthetic Chemistry and Natural …, 2018).

Molecular target: T1, β-1,4-galactosyltransferase I (β4GalT) from bovine milk (Bos taurus, UniProt P08037)
T1 construct: gene B4GALT1
T1 sequence (P08037 1-402): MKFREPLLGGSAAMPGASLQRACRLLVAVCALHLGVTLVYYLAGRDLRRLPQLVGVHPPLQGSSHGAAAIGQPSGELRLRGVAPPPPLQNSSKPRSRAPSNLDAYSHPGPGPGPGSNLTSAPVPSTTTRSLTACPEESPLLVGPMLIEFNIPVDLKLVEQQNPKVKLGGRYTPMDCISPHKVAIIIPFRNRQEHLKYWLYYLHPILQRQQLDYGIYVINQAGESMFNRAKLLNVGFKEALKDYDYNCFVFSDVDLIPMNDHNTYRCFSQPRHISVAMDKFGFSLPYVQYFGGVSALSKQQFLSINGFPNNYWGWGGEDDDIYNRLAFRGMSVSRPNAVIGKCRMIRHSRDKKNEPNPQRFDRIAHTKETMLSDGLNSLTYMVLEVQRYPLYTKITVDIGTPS
Assay: RP-HPLC enzymatic assay with fluorescence detection: galactose transfer from UDP-Gal to esculine
Format: biochemical

- IC50: 710 µM
SMILES: O=C(CCOCn1ccc(=O)[nH]c1=O)Nc1ccc(S[C@@H]2O[C@H](CO)[C@@H](O)[C@H](O)[C@H]2O)nc1 [compound 64, Glycoconjugate 64]
